# Details: buffer; pH 7.4; 200.0 µM
row,Compound,solubility kinetic [µg/mL]
1,Cc1cnc(C(=O)OCC(=O)c2c[nH]c3ccccc23)cn1,13.7
2,O=C1c2ccccc2CN1C(CO)c1ccccc1 (centres undefined),34.7
3,c1cnc2c(c1)ccc1ncccc12,> 27
4,Cc1ccc(C(=O)N2CCN=C2SCc2ccc([N+](=O)[O-])cc2)cc1C,0.3
5,Cc1ccc2nc3c(cc(C#N)c(=N)n3Cc3cccnc3)c(=O)n2c1,2.1
6,O=C(NC(=S)Nc1cccnc1Cl)c1ccc(F)cc1,6.4
7,CCOC(=O)c1ccc(N=c2ssnc2Cl)cc1,4.8
8,CC(=O)c1ccc(OCc2ncc(C(F)(F)F)cc2Cl)cc1,23.6
9,Cc1ccc(-c2nc(CN(C)C3CCOC3)c(C)o2)s1 (centres undefined),> 43.9
10,Cc1nc2ccc(NC(=S)N3CCCC3)cc2nc1C,41.7
11,Cc1ccc(NC(=O)C2CCCCC2C(=O)O)cc1C (centres undefined),40.4
12,CC12CCC(C/C1=N\OC(=O)c1c(F)cccc1F)C2(C)C (centres undefined),21.5
13,COc1cccc([C@@]2(O)CCCC[C@@H]2CN(C)C)c1,> 39.5
14,Cc1ccc(C(=O)Nc2cccc(-c3nc4ncccc4o3)c2)cc1,1.3
15,N#CC1=C(N)OC2=C(C(=O)CCC2)C1c1ccc2c(c1)OCO2 (centres undefined),16.5
16,CC1CN(C(=O)COC(=O)c2cccc(S(=O)(=O)N3CCc4ccccc43)c2)CC(C)O1 (centres undefined),15.3
17,Cc1cccc(CN2CCN(C(=O)c3cccc4ccccc34)CC2)c1,38.6
18,O=c1c(-c2ccccc2)cnc2n1CCS2,> 34.5
19,COc1ccc2nc(NC(=O)c3ccc(F)cc3)sc2c1,< 0.3
20,CC1CCCC(NC(=O)COC(=O)COc2cccc(F)c2)C1C (centres undefined),20.2
21,CCOC(=O)CNC(=O)c1ccc(SCC)cc1,> 40.1
22,O=C(O)c1ccc(NC(=O)c2ccco2)c(NC(=O)c2ccco2)c1,> 51
23,COc1ccccc1C(=O)NCC(=O)N1CC=C(c2ccccc2)CC1,4.5
24,COc1ccc(C2(c3ccc(OC)cc3)NC(=O)N(CC(=O)NC3CCS(=O)(=O)C3)C2=O)cc1 (centres undefined),> 73.1

row,Compound,solubility kinetic [µg/mL]
1,CCOc1ccccc1N1CC(C(=O)N2CCOCC2)CC1=O (centres undefined),44.6
2,CC(C)(C)c1ccc(C(=O)NCCOc2ccccc2)cc1,2.2
3,O=C(Nc1ccccc1)OCCOc1cccc(Br)c1,6.6
4,COc1cccc(C(=O)N2CCC(C(=O)N3CCN(C)CC3)CC2)c1,> 51.8
5,O=C1CCC(C(=O)NCc2ccccc2)N1 (centres undefined),30.8
6,COc1ccc(/C=N/S(=O)(=O)c2ccc(C)cc2)cc1,41
7,Cc1cccc(C(=O)NCCCNC(=O)c2ccc(C)nc2)c1,44.1
8,COc1ccc2c(c1)C(=O)N(CCc1ccc(S(=O)(=O)NC(=O)NC3CCCCC3)cc1)C(=O)C2(C)C,69.5
9,Cc1ccnc(NC(=O)Cc2ccc(F)cc2)n1,> 36.8
10,O=C(O)C1CCCCC1C(=O)Nc1ccc(OCc2ccccc2)cc1 (centres undefined),44.2
11,O=C(NC1=NCCS1)c1ccc(Cl)c(Cl)c1,0.9
12,CC(=O)Nc1ccc(NS(=O)(=O)c2ccc(C)cc2)cc1[N+](=O)[O-],> 52.4
13,O=C(Cc1ccc(Br)cc1)N1CCCC1,37.6
14,CCOCCCNC(=O)c1cc2c(=O)n3cccc(C)c3nc2s1,4.1
15,Cc1c(Cl)cccc1NC(=O)c1ccco1,> 35.4
16,CC(C)OCCCNC(=O)Cc1ccc(Br)cc1,41.6
17,COc1ccc(Cl)cc1NC(=O)c1cc(C)no1,5.7
18,O=C(CCCOc1ccccc1)Nc1ccc(Cl)c(S(=O)(=O)N2CCOCC2)c1,25.7
19,Nc1ccccc1C(=O)NCCCN1CCN(c2cccc(Cl)c2)CC1,12.9
20,Cc1cc(=O)[nH]c2c(C)cc(S(=O)(=O)N3CCOCC3)cc12,17.3
21,COc1ccc(-n2cc(-c3ccccc3)[nH]c2=S)c(OC)c1,3.3
22,CSC1=C(C#N)C(c2ccncc2)C(C(=O)Nc2ccccc2)=C(C)N1 (centres undefined),52.5
23,O=CN1CCN(C(=O)c2ccc3c(c2)OCO3)CC1,> 39.3
24,c1coc(-c2ccnc(-n3cccc3)n2)c1,1.6

row,Compound,solubility kinetic [µg/mL]
1,Cc1nc2ccc(S(=O)(=O)N3CCCCC3)cc2s1,21.4
2,Cc1ccc(C(=O)N2CCc3ccccc32)cc1[N+](=O)[O-],< 0.3
3,COCC(C)Nc1ccc(S(=O)(=O)N2CCCC2)cc1[N+](=O)[O-] (centres undefined),44.2
4,CN(C(=O)/C=C/c1ccco1)c1ccccc1C(=O)O,> 40.7
5,O=C(NCCN1CCCCC1)Nc1ccc(Br)cc1,48.4
6,NC(=O)CCC(NC(=O)c1ccc(Cl)cc1)C(=O)O (centres undefined),> 42.7
7,N#Cc1cccc(NC(=O)CN2CCCCCC2)c1,> 38.6
8,O=C1NC(=O)N(Cc2ccccc2)C1=O,> 30.6
9,CN1C(=O)C(=Cc2coc3ccccc3c2=O)C(=O)N(C)C1=O,> 46.8
10,COc1cc2ccccc2cc1C(=O)NC1CCCC1,> 40.4
11,COC1Cc2ccccc2N(C(N)=O)c2ccccc21 (centres undefined),> 40.2
12,COc1ccc(NC(=O)Nc2cccc(C)n2)c(OC)c1,< 0.2
13,Cc1cc(C)c(NC(=O)CSCc2c(C)noc2C)c(C)c1,28.1
14,CC(C)CC(=O)Nc1ccc(-c2cn3cccnc3n2)cc1,> 44.2
15,Cc1cnc(NC(=O)[C@H](C)N2C(=O)C3CCCCC3C2=O)s1 (some centres undefined),> 48.2
16,Cc1cc(NC(=O)c2cc(C(C)(C)C)oc2C)no1,0.9
17,CC(C)CC(=O)Nc1cccc(-c2nc3ncccc3o2)c1,31.8
18,CCCC(=NC(C)CC)C1=C(O)CC(c2ccccc2)CC1=O (centres undefined),39
19,CC(C)(C)Nc1nc(-c2ccc3c(c2)CCN3C(=O)C2CC2)cs1,5.4
20,Cc1cccc(NC(=O)c2cc3c(s2)-c2c(C)cccc2OC3)n1,< 0.4
21,CCOC(=O)c1ccc(NCc2cccnc2)cc1,> 38.4
22,O=C(NCc1ccc(F)cc1)C(c1ccccc1)c1ccccc1,< 0.7
23,Cc1ccc(S(=O)(=O)c2nc(-c3ccccc3Cl)oc2N(C)C2CCN(C)CC2)cc1,> 69
24,Cc1ccc(CS(=O)(=O)CCC(=O)NCCc2ccccc2)cc1,5.2

row,Compound,solubility kinetic [µg/mL]
1,CSc1ccc(Cl)c(C(=O)N2CCOc3ccccc32)c1,13.5
2,O=C(CN1C(=O)CCC1=O)Nc1cccc2c1C(=O)NC2=O,> 45.2
3,O=c1[nH]c2c(oc3ccccc32)c(=O)n1Cc1ccccc1,3
4,Cc1nc(Cl)c2c(n1)NC(=O)CO2,> 29.9
5,CCOC(=O)c1c(C)noc1-c1ccco1,7.5
6,O=c1nc(-c2ccccc2)nc(-c2ccccc2)[nH]1,22.9
7,CCOC(=O)C1=C(COC(=O)C2CC(=O)N(CCc3ccccc3)C2)NC(=O)NC1C (centres undefined),> 64.4
8,O=C(NCc1cccnc1)C(=O)Nc1ccc2c(c1)OCO2,42.7
9,O=S(=O)(/N=C(/Nc1cccnc1Cl)c1ccccc1)c1ccccc1,> 55.8
10,COc1ccc(C(=O)C[n+]2ccc(N(C)C)cc2)cc1.[Cl-],> 46
11,O=C1OCC(c2ccc(Cl)s2)=C1c1ccccc1[N+](=O)[O-],22.3
12,COc1ccc(O)c(CNc2ccccc2F)c1,34
13,Cc1cccc(NC(=O)CSc2n[nH]c(-c3cccnc3)n2)c1,> 48.8
14,Cc1cc(C(=O)N2CCC(C(=O)O)CC2)c(C)o1,> 37.7
15,CCOC(=O)N1CCN(S(=O)(=O)c2ccc3c4c(cccc24)C(=O)N3)CC1,3.6
16,COc1cccc(NC2=NCCCS2)c1,> 33.3
17,CCOC(=O)c1cc(C)nc(N2CCCCC2)c1C#N,11.5
18,Cc1cccc(C)c1NC(=O)C1CCCCN1C.Cl (centres undefined),> 42.4
19,O=C(CCCCC(=O)N1CCOCCOCCOCC1)OCc1ccccc1,56.1
20,Cc1cc(C(=O)N2CCN(Cc3ccccc3)CC2)ccc1[N+](=O)[O-],> 50.9
21,Cc1ccc(CN2CCN(C(=O)c3cccc4ccccc34)CC2)cc1.O=C(O)C(=O)O,59.6
22,CSc1ccccc1NC(=O)COC(=O)c1ccccc1O,2
23,COc1ccc(/C(N)=N/OC(=O)c2cccs2)cc1,35.9
24,O=C(O)/C=C/C(=O)Nc1ccc(-n2nccc2C(F)(F)F)cc1,> 48.8

row,Compound,solubility kinetic [µg/mL]
1,CCCOc1ccc(C(=O)Nc2ccc(CN3CCOCC3)cc2)cc1,4.1
2,O=C(NC1CCSc2ccccc21)c1ccccc1Br (centres undefined),8.6
3,O=C(COC(=O)c1ccc(Br)cc1)NCC1CCCO1 (centres undefined),> 51.3
4,O=C(NC1CC1)C1CCN(S(=O)(=O)c2ccc(Cl)cc2)CC1,41.7
5,CCOc1ccc(S(=O)(=O)N2CCCCC2)c(C)c1C,9.7
6,CC(=O)Nc1ccc(OS(=O)(=O)c2ccc(Cl)cc2)cc1,38.6
7,O=C1c2ccccc2NC(c2cccc(O)c2)N1O (centres undefined),> 38.4
8,CC(C)(C)c1ccc(C(=O)NC2CCN(Cc3ccccc3)CC2)cc1,36.5
9,COc1ccc(CNC(=O)c2c[nH]c3ccccc3c2=O)cc1,4.1
10,CCN(c1ccc(NC(=O)CSc2ccc3c(c2)OCCO3)cc1)C(C)C,4.4
11,CCOCCCNCc1cc(Cl)ccc1OCC.Cl,> 46.2
12,CSc1c(CN2CCN(C)CC2)c2ccccc2n1C.Cl,52.9
13,CCN(C(=O)COc1ncnc2sccc12)c1ccccc1,42.5
14,C=C(C)Cn1cnc2cc(C)c(C)cc21,> 30
15,Cc1ccc(NC(=O)CSc2nccn2Cc2ccco2)c(C)c1,46.8
16,O=C(NCCc1ccc(Cl)cc1)C1CCN(c2ncccn2)CC1,6.7
17,Cc1c(O)ccc(C(=O)CN2CCN(Cc3ccccc3)CC2)c1O,38.1
18,O=C(NCCN1CCOCC1)c1cc(-c2ccccc2Cl)on1,> 50.4
19,Cn1c(N)c(C(=O)COC(=O)C2CCCC2)c(=O)n(C)c1=O,> 46.4
20,Clc1cccc(Cl)c1C[n+]1cccc2ccccc21.[Br-],51.6
21,COc1ccc(NS(=O)(=O)c2ccc(C(=O)N(C)Cc3ccc(C)o3)cc2)cc1,61.1
22,CCc1ccc(NC(=O)NCc2ccc3c(c2)OCO3)cc1,0.6
23,O=C1C2C3C=CC(C4CC34)C2C(=O)N1c1cccc2ccccc12 (centres undefined),42.7

# From PubChem BioAssay AID1996
